Measured values as given in patent US11999727B2 (Tango Therapeutics, Inc., priority 2020, dated 2024).

Experiments:
[1] = target: T1, PRMT5 (Homo sapiens, UniProt O14744); experiment: PRMT5 biochemical IC50 assay with SAM as cofactor; conditions: PRMT5, SAM as cofactor; read-out: SAM IC50
T1 construct: purchased Viva (custom protein)

[2] = target: T1, PRMT5; experiment: PRMT5 biochemical IC50 assay with MTA as cofactor; conditions: PRMT5, MTA as cofactor; read-out: MTA IC50
[3] = system: HAP1 MTAP-intact cell line; experiment: SDMA in-cell western assay, HAP1 MTAP-intact; type: cell-based; conditions: Homo sapiens, HAP1, SDMA in-cell western, HAP1 MTAP-intact; read-out: MTAP HAP1 intact IC50
Summary of the method: (§1)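 MTAP-null vs endogenous-MTAP HAP1 isogenic cells; in-cell western SDMA readout; IC50 per line.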

[4] = target: T1, PRMT5; experiment: PRMT5 biochemical IC50 assay with no cofactor; conditions: PRMT5, no cofactor
From the text: Table 1 indicates IC50 values (μM) against PRMT5 for exemplary compounds in the presence of SAM as cofactor, with no cofactor, and with MTA as cofactor, respectively (columns 4-6). […] Ki values can be calculated from the IC50 values as described in the Examples section. As detailed in the Examples section, for the assay performed in the presence of SAM, IC50=Ki×1.5 (Ki=IC50/1.5).

[5] = system: HAP1 MTAP-deleted cell line; experiment: SDMA in-cell western assay, HAP1 MTAP-deleted; type: cell-based; conditions: for IC50: Homo sapiens, HAP1, SDMA in-cell western, HAP1 MTAP-deleted; for MTAP intact/deleted ratio: SDMA in-cell western
Summary of the method: as §1

[6] = system: HAP1 MTAP-deleted cell line; experiment: Viability assay, MTAP-deleted cell line; type: cell-based; conditions: read-out: HAP1 MTAP deleted viability
From the text: Table 1 additionally indicates IC50 values in a viability assay for the MTAP-deleted cell line (column 10), indicating the effect of treatment with compound on cell survival.

[7] = read-out: HAP1 MTAP deleted IC50
[8] = IC50 ratio HAP1 MTAP-intact / HAP1 MTAP-deleted
[9] = Homo sapiens, HAP1, viability assay, MTAP-deleted cell line
[10] = IC50 ratio HAP1 MTAP-intact vs HAP1 MTAP-deleted
[11] = read-out: HAP 1 MTAP deleted IC50
[12] = Homo sapiens, HAP1, viability IC50, MTAP-deleted cell line
[13] = read-out: No Cofactor/ rel IC50

T1 sequence (O14744 whole entry): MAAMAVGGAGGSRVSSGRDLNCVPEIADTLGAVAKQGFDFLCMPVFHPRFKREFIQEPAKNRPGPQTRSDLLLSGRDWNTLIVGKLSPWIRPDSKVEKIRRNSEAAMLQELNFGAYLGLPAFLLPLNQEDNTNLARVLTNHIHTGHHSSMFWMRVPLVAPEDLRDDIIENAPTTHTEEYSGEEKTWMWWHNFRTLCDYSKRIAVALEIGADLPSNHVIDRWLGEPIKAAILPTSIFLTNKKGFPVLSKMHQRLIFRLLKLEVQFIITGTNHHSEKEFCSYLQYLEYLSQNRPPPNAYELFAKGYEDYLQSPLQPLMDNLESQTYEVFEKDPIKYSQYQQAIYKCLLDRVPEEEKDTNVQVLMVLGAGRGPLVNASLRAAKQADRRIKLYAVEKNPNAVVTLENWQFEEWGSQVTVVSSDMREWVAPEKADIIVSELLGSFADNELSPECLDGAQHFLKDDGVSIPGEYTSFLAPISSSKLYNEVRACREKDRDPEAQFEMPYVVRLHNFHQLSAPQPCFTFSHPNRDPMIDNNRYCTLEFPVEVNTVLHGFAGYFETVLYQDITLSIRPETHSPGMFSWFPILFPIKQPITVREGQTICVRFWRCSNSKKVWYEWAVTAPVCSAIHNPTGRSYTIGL
T1 sequence (Q9BQA1 whole entry partner): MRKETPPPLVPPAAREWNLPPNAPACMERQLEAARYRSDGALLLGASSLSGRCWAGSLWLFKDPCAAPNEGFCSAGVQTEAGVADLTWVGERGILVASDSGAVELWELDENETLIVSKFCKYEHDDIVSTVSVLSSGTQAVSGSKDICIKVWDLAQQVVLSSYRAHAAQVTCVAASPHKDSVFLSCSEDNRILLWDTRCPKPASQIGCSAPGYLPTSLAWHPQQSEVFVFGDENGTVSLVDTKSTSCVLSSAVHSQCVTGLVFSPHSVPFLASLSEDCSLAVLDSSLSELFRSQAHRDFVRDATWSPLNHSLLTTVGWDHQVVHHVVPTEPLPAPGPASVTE

Row | Compound | IC50 [1] [nM] | IC50 [2] [nM] | IC50 [3] [nM] | IC50 ([4]; read-out: No Cofactor/rel IC50) [nM] | IC50 [5, 7] [nM] | IC50 [5, 11] [nM] | IC50 [4, 13] [nM] | MTAP intact/deleted ratio [5, 8] | IC50 [6, 9] [µM] | IC50 ([6]; Homo sapiens, HAP1, viability assay, HAP1 MTAP-deleted) [µM] | MTAP intact/deleted ratio [5, 10] | IC50 [6, 12] [µM] | IC50 ([6]; viability assay, MTAP-deleted cell line) [µM] | IC50 ([6]; Homo sapiens, HAP1, viability, HAP1 MTAP-deleted cell line) [µM]
1 | [H][C@@]1([C@]2([H])C[C@@]3(C[C@H](O)C3)C2)CC[C@@H](C)CN1C(=O)C(=O)Nc1cnc(N)c(C)c1 (mixture of isomers) [Compound 711] | > 500 | 50 to 500 | > 1000 | > 500 | > 1000 | – | – | B (an IC50 ratio greater than or equal to 3 fold but lower than 10 fold) | – | > 10 | – | – | – | –
2 | Cc1c(NC(=O)C(=O)N2C[C@H](C)CC[C@H]2c2ccccc2)cnc(N)c1C (single isomer, unassigned) [Compound 367] | > 500 | 50 to 500 | > 1000 | > 500 | > 1000 | – | – | C (an IC50 ratio of less than 3 fold) | > 10 | – | – | – | – | –
3 | CCc1cc(NC(=O)C(=O)N2C[C@@H](C)CC[C@@H]2c2ccc(N3CCN(C)CC3)nc2)cnc1N (single isomer, unassigned) [Compound 1103] | 50 to 500 | < 50 | 100 to 1000 | < 50 | < 100 | – | – | – | < 1 | – | A (an IC50 ratio greater than or equal to 10 fold) | – | – | –
4 | Cc1cc(NC(=O)C(=O)N2C[C@@H](C)CC[C@@H]2c2ccc(-c3ccn[nH]3)cc2)cnc1N (single isomer, unassigned) [Compound 676] | 50 to 500 | < 50 | 100 to 1000 | < 50 | – | < 100 | – | B (an IC50 ratio greater than or equal to 3 fold but lower than 10 fold) | – | – | – | < 1 | – | –
5 | Cc1ccc([C@@H]2CC[C@@H](C)CN2C(=O)C(=O)Nc2cncc(C(N)=O)c2)cc1Cl (racemic) [Compound 179, rac-5-{2-[(2R,5S)-2-(3-Chloro-4-methylphenyl)-5-methylpiperidin-1-yl]-2-oxoacetamido}pyridine-3-carboxamide] | 50 to 500 | < 50 | > 1000 | 50 to 500 | < 100 | – | – | A (an IC50 ratio greater than or equal to 10 fold) | 1 to 10 | – | – | – | – | –
6 | Cn1nccc1C1CCCCN1C(=O)C(=O)Nc1cncc(C(N)=O)c1 (single isomer, unassigned) [Compound 46] | 50 to 500 | < 50 | > 1000 | – | – | 100 to 1000 | 50 to 500 | A (an IC50 ratio greater than or equal to 10 fold) | – | – | – | – | > 10 | –
7 | C[C@@H]1CC[C@@H](c2ccc(F)cc2)N(C(=O)C(=O)Nc2cnc(OC(F)F)c(C(N)=O)c2)C1 (racemic) [Compound 889, 2-(difluoromethoxy)-5-(2-(2-(4-fluorophenyl)-5-methylpiperidin-1-yl)-2-oxoacetamido)nicotinamide] | > 500 | 50 to 500 | > 1000 | 50 to 500 | – | > 1000 | – | B (an IC50 ratio greater than or equal to 3 fold but lower than 10 fold) | > 10 | – | – | – | – | –
8 | C[C@@H]1CC[C@@H](c2ccncc2)N(C(=O)C(=O)Nc2cncc(C(N)=O)c2)C1 (single isomer, unassigned) [Compound 544, 5-(2-(5-methyl-2-(pyridin-4-yl)piperidin-1-yl)-2-oxoacetamido)nicotinamide] | > 500 | > 500 | > 1000 | > 500 | – | > 1000 | – | C (an IC50 ratio of less than 3 fold) | – | – | – | > 10 | – | –
9 | Cc1cc(NC(=O)C(=O)N2C[C@@H](C)CC[C@@H]2c2ccc3c(cnn3C)c2)cnc1N (single isomer, unassigned) [Compound 1037] | > 500 | > 500 | > 1000 | > 500 | – | 100 to 1000 | – | A (an IC50 ratio greater than or equal to 10 fold) | > 10 | – | – | – | – | –
10 | Cc1cc(NC(=O)C(=O)N2CC[C@H](N(C)C)C[C@H]2c2ccccc2)cnc1N (racemic) [Compound 906] | 50 to 500 | 50 to 500 | > 1000 | > 500 | – | > 1000 | – | C (an IC50 ratio of less than 3 fold) | > 10 | – | – | – | – | –
11 | Cc1cncc(NC(=O)C(=O)N2C[C@H](C)CC[C@H]2c2cccc(N)c2)c1 (racemic) [Compound 91, 2-[(2R,5S)-2-(3-aminophenyl)-5-methyl-1-piperidyl]-N-(5-methyl-3-pyridyl)-2-oxo-acetamide] | > 500 | 50 to 500 | > 1000 | – | – | > 1000 | > 500 | C (an IC50 ratio of less than 3 fold) | > 10 | – | – | – | – | –
12 | Cc1cc(NC(=O)C(=O)N2C[C@H](C)CC[C@H]2c2ccc(S(N)(=O)=O)cc2)cnc1N (racemic) [Compound 662, N-(6-amino-5-methyl-3-pyridyl)-2-[(2S,5R)-5-methyl-2-(4-sulfamoylphenyl)-1-piperidyl]-2-oxo-acetamide] | 50 to 500 | 50 to 500 | > 1000 | 50 to 500 | – | 100 to 1000 | – | A (an IC50 ratio greater than or equal to 10 fold) | – | – | – | > 10 | – | –

Continued, in another order:

Row | IC50 [1] [nM] | IC50 [2] [nM] | IC50 [3] [nM] | IC50 ([4]; read-out: No Cofactor/rel IC50) [nM] | IC50 [5, 7] [nM] | IC50 [5, 11] [nM] | IC50 [4, 13] [nM] | Compound | MTAP intact/deleted ratio [5, 8] | IC50 [6, 9] [µM] | IC50 ([6]; Homo sapiens, HAP1, viability assay, HAP1 MTAP-deleted) [µM] | MTAP intact/deleted ratio [5, 10] | IC50 [6, 12] [µM] | IC50 ([6]; viability assay, MTAP-deleted cell line) [µM] | IC50 ([6]; Homo sapiens, HAP1, viability, HAP1 MTAP-deleted cell line) [µM]
13 | 50 to 500 | < 50 | > 1000 | 50 to 500 | 100 to 1000 | – | – | C[C@@H]1CC[C@@H](c2ccc3c(c2)C[C@H](C)O3)N(C(=O)C(=O)Nc2cncc(C(N)=O)c2)C1 (single isomer, unassigned) [Compound 345] | A (an IC50 ratio greater than or equal to 10 fold) | 1 to 10 | – | – | – | – | –
14 | < 50 | < 50 | 100 to 1000 | < 50 | < 100 | – | – | CCc1cc(NC(=O)C(=O)N2C[C@@H](C)CC[C@@H]2c2cccc(OCCN(C)C)c2)cnc1N [Compound 1175, N-(6-amino-5-ethylpyridin-3-yl)-2-((2R,5S)-2-(3-(2-(dimethylamino)ethoxy)phenyl)-5-methylpiperidin-1-yl)-2-oxoacetamide] | – | < 1 | – | A (an IC50 ratio greater than or equal to 10 fold) | – | – | –
15 | 50 to 500 | < 50 | > 1000 | 50 to 500 | 100 to 1000 | – | – | C[C@H]1CC[C@H](c2ccc(NS(C)(=O)=O)cc2)N(C(=O)C(=O)Nc2cncc(C(N)=O)c2)C1 (single isomer, unassigned) [Compound 462] | A (an IC50 ratio greater than or equal to 10 fold) | 1 to 10 | – | – | – | – | –
16 | < 50 | < 50 | < 100 | < 50 | < 100 | – | – | C[C@@H]1CC[C@@H](c2ccc3nn(CCN(C)C)cc3c2)N(C(=O)C(=O)Nc2cnc(N)c(C3CC3)c2)C1 (single isomer, unassigned) [Compound 1156] | – | < 1 | – | A (an IC50 ratio greater than or equal to 10 fold) | – | – | –
17 | < 50 | < 50 | < 100 | < 50 | < 100 | – | – | COc1ncc(NC(=O)C(=O)N2C[C@@H](C)CC[C@@H]2c2ccc3sc(C4CC5(C4)CN(C)C5)nc3c2)cc1C(N)=O [Compound 1236, 2-methoxy-5-(2-((2R,5S)-5-methyl-2-(2-(2-methyl-2-azaspiro[3.3]heptan-6-yl)benzo[d]thiazol-5-yl)piperidin-1-yl)-2-oxoacetamido)nicotinamide] | – | < 1 | – | A (an IC50 ratio greater than or equal to 10 fold) | – | – | –
18 | < 50 | < 50 | < 100 | – | – | < 100 | < 50 | CCc1cc(NC(=O)C(=O)N2C[C@@H](C)CC[C@@H]2c2ccc3cn(C4CC(C)(C)N(C)C(C)(C)C4)nc3c2)cnc1N (racemic) [Compound 1295, N-(6-Amino-5-ethyl-3-pyridyl)-2-oxo-2-[rac-(2R,5S)-5-methyl-2-[2-(1,2,2,6,6-pentamethyl-4-piperidyl)indazol-6-yl]-1-piperidyl]acetamide] | A (an IC50 ratio greater than or equal to 10 fold) | – | – | – | – | – | < 1
